Here are results for three molecules from patent publication US8153785B2, “Stabilizing ligands for regulation of protein function” (Cheminpharma LLC, priority 2009, dated 2012).

This test deals with T1, L106-tsLuc (FKBP L106P destabilizing domain fused to luciferase) in HCT116 cells (Homo sapiens, UniProt P62942, F37V).
T1 construct: expressed in transfected cells; host or cells: HCT116
T1 sequence (P62942 with tags, fused parts or gaps F37V limits assumed): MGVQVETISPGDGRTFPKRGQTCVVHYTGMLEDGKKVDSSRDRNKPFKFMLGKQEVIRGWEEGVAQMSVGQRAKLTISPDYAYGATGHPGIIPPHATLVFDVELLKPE
Put plainly: Luciferase stabilization assay in HCT116 cells stably transfected with L106-tsLuc. Format: cell-based. The following applies: 24 hour incubation, 3-fold dilutions, 10 μM to 12 nM, BrightGlo readout, read-out: luciferase activity, expressed in IC50 values. The method, then: The compounds were assayed for their ability to bind to the destabilizing domain of the protein according the following procedure:
HCT116 cells stably transfected with L106-tsLuc were cultured in DMEM media containing 10% fetal bovine serum. 7,000 cells/well were seeded in 100 μL of DMEM/10% FBS media in a 96-well plate and incubated overnight at 37° C. in a humidified, 5% CO2 incubator. Media was replaced with fresh 100 μL of fresh DMEM/10% FBS media containing various concentrations of Shield-1, and the compounds of Example 6 (Ic), and Example 9 (Id) Compounds were added at 3-fold dilutions, concentrations ranging from 10 μM to 12 nM. After 24 hour incubation with the compounds at 37° C. in a humidified, 5% CO2 incubator, luciferase activity was measured in a luminometer after the addition of 100 μL/well BrightGlo reagent (Promega).
The IC50 is the point on the concentration scale where inhibition reaches its midpoint. For the molecule `CC[C@H](C(=O)N1CCCC[C@H]1C(=O)OC(CCc1ccc(OC)c(OC)c1)c1cccc(OCCN2CCOCC2)c1)c1cc(OC)c(OC)c(OC)c1` (stereo partly drawn) [Shield-1, reference compound], the IC50 is < 10 nM. In the case of `CCN(C(=O)N1CCCC[C@H]1C(=O)N[C@H](CCc1ccc(OC)c(OC)c1)c1cccc(OCCN2CCOCC2)c1)c1ccccc1` [Example 9 (Id)], the IC50 was < 10000 nM. For `CC[C@H](C(=O)N1CCCC[C@H]1C(=O)N[C@H](CCc1ccc(OC)c(OC)c1)c1cccc(OCCN2CCOCC2)c1)c1cc(OC)c(OC)c(OC)c1` [Example 6 (Ic)], the IC50 was < 100 nM.
